# Experimental data published in PubChem BioAssay AID212 (DTP/NCI, 2004).
# Several values for one entry are separate records, joined by “and”; a condition that tells them apart may be missing. Equal entries are not always repeated. Records with an inconclusive call do not appear.
# Tested on: BDF1 mice, colon carcinoma 38 sc, T/C %
# Assay: NCI In Vivo Anticancer Drug Screen. Data for tumor model Colon Carcinoma 38 (subcutaneous) in B6D2F1 (BDF1) mice
# Details: endpoint: median tumor weight (est.), higher = larger tumour
# Summary of the method: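 Mice with transplanted tumors are treated with compound or vehicle. Survival or tumor size is then measured in both groups. The ratio of treated to control gives the reported figure.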
# [1] = dose: 12.5 mg/kg/injection, schedule: Q07DX002 (ip), vehicle: Klucel (hydroxypropylcellulose) (HPC)
# [2] = dose: 25.0 mg/kg/injection, schedule: Q07DX002 (ip), vehicle: Klucel (hydroxypropylcellulose) (HPC)
# [3] = dose: 50.0 mg/kg/injection, schedule: Q07DX002 (ip), vehicle: Klucel (hydroxypropylcellulose) (HPC)
# [4] = dose: 100.0 mg/kg/injection, schedule: Q07DX002 (ip), vehicle: Klucel (hydroxypropylcellulose) (HPC)
# [5] = dose: 200.0 mg/kg/injection, schedule: Q07DX002 (ip), vehicle: Klucel (hydroxypropylcellulose) (HPC)
# [6] = dose: 25.0 mg/kg/injection, schedule: Q07DX002 (ip), vehicle: saline
# [7] = dose: 100.0 mg/kg/injection, schedule: Q07DX002 (ip), vehicle: saline
# [8] = dose: 50.0 mg/kg/injection, schedule: Q07DX002 (ip), vehicle: saline
smiles,measurement,setting,value
CCc1nc(N)nc(N)c1-c1ccc(Cl)c([N+](=O)[O-])c1,T/C,"dose: 3.12 mg/kg/injection, schedule: Q07DX002 (ip), vehicle: saline with Tween-80",70 % of control
same,T/C,"dose: 6.25 mg/kg/injection, schedule: Q07DX002 (ip), vehicle: saline with Tween-80",65 % of control and 77 % of control
same,T/C,"dose: 12.5 mg/kg/injection, schedule: Q07DX002 (ip), vehicle: saline with Tween-80",97 % of control and 103 % of control
same,T/C,"dose: 50.0 mg/kg/injection, schedule: Q07DX002 (ip), vehicle: saline with Tween-80",45 % of control and 62 % of control
same,T/C,"dose: 100.0 mg/kg/injection, schedule: Q07DX002 (ip), vehicle: saline with Tween-80",52 % of control
C=CCNc1ccc(C)cc1,T/C,[1],72 % of control
same,T/C,[2],92 % of control
same,T/C,[3],66 % of control
same,T/C,[4],86 % of control
same,T/C,[5],78 % of control
Cc1c(-c2ccc(-c3ccccc3F)cc2)nc2ccc(F)cc2c1C(=O)O,T/C,"dose: 5.0 mg/kg/injection, schedule: Q01DX008 (ip), vehicle: water",24 % of control
same,T/C,"dose: 10.0 mg/kg/injection, schedule: Q01DX008 (ip), vehicle: water",5 % of control
same,T/C,"dose: 20.0 mg/kg/injection, schedule: Q01DX008 (ip), vehicle: water",16 % of control
CC1=CC2OC3C(OC(=O)CCCCl)C(OC(=O)CCCCl)C(C)(C2(CO)CC1)C31CO1 (stereo not given),T/C,"dose: 2.0 mg/kg/injection, schedule: Q07DX003 (ip), vehicle: saline with Tween-80",103 % of control
same,T/C,"dose: 8.0 mg/kg/injection, schedule: Q07DX003 (ip), vehicle: saline with Tween-80",76 % of control
same,T/C,"dose: 16.0 mg/kg/injection, schedule: Q07DX003 (ip), vehicle: saline with Tween-80",83 % of control
O=C(O)CSc1nc(-c2ccccc2)c(-c2ccccc2)n1-c1ccccn1,T/C,[1],92 % of control
same,T/C,[2],83 % of control
same,T/C,"dose: 25.0 mg/kg/injection, schedule: Q07DX002 (ip), vehicle: water",114 % of control
same,T/C,[3],72 % of control
same,T/C,"dose: 50.0 mg/kg/injection, schedule: Q07DX002 (ip), vehicle: water",112 % of control
same,T/C,[4],106 % of control
same,T/C,"dose: 100.0 mg/kg/injection, schedule: Q07DX002 (ip), vehicle: water",95 % of control
same,T/C,[5],73 % of control
same,T/C,"dose: 200.0 mg/kg/injection, schedule: Q07DX002 (ip), vehicle: water",89 % of control
COc1ccc(-c2cc(=O)c3cccc(CC(=O)O)c3o2)cc1OC,T/C,[2],106 % of control
same,T/C,[4],117 % of control
same,T/C,[5],82 % of control
CC1CCC(n2cnc3c(Cl)ncnc32)O1 (stereo not given),T/C,[1],76 % of control
same,T/C,[3],78 % of control and 100 % of control
same,T/C,"dose: 62.0 mg/kg/injection, schedule: Q07DX002 (ip), vehicle: Klucel (hydroxypropylcellulose) (HPC)",87 % of control
same,T/C,[4],86 % of control and 95 % of control
same,T/C,"dose: 125.0 mg/kg/injection, schedule: Q07DX002 (ip), vehicle: Klucel (hydroxypropylcellulose) (HPC)",115 % of control
same,T/C,[5],109 % of control and 95 % of control
same,T/C,"dose: 250.0 mg/kg/injection, schedule: Q07DX002 (ip), vehicle: Klucel (hydroxypropylcellulose) (HPC)",56 % of control
O=CC(=O)c1ccc(O)cc1,T/C,"dose: 6.25 mg/kg/injection, schedule: Q07DX002 (ip), vehicle: suspension in saline",216 % of control
same,T/C,"dose: 12.5 mg/kg/injection, schedule: Q07DX002 (ip), vehicle: suspension in saline",114 % of control
same,T/C,"dose: 25.0 mg/kg/injection, schedule: Q07DX002 (ip), vehicle: suspension in saline",153 % of control
same,T/C,"dose: 50.0 mg/kg/injection, schedule: Q07DX002 (ip), vehicle: suspension in saline",153 % of control
same,T/C,"dose: 200.0 mg/kg/injection, schedule: Q07DX002 (ip), vehicle: suspension in saline",118 % of control
Cc1c(N)nc(C(CC(N)=O)NCC(N)C(N)=O)nc1C(=O)NC(C(=O)NC(C)C(O)C(C)C(=O)NC(C(=O)NCCc1nc(-c2nc(C(=O)NCCCNCCCc3ccccn3)cs2)cs1)C(C)O)C(OC1OC(CO)C(O)C(O)C1OC1OC(CO)C(O)C(OC(N)=O)C1O)c1cnc[nH]1 (stereo not given),T/C,"dose: 0.1 mg/kg/injection, schedule: Q07DX003 (ip), vehicle: saline",96 % of control
same,T/C,"dose: 0.2 mg/kg/injection, schedule: Q07DX003 (ip), vehicle: saline",67 % of control
same,T/C,"dose: 0.4 mg/kg/injection, schedule: Q07DX002 (ip), vehicle: water",81 % of control
same,T/C,"dose: 0.4 mg/kg/injection, schedule: Q07DX003 (ip), vehicle: saline",72 % of control
same,T/C,"dose: 0.8 mg/kg/injection, schedule: Q07DX002 (ip), vehicle: water",66 % of control
same,T/C,"dose: 0.8 mg/kg/injection, schedule: Q07DX003 (ip), vehicle: saline",105 % of control
same,T/C,"dose: 1.6 mg/kg/injection, schedule: Q07DX002 (ip), vehicle: water",75 % of control
same,T/C,"dose: 1.6 mg/kg/injection, schedule: Q07DX003 (ip), vehicle: saline",71 % of control
same,T/C,"dose: 3.2 mg/kg/injection, schedule: Q07DX002 (ip), vehicle: water",72 % of control
same,T/C,"dose: 3.2 mg/kg/injection, schedule: Q07DX003 (ip), vehicle: saline",60 % of control
same,T/C,"dose: 6.25 mg/kg/injection, schedule: Q07DX002 (ip), vehicle: saline",70 % of control
same,T/C,"dose: 6.4 mg/kg/injection, schedule: Q07DX002 (ip), vehicle: water",41 % of control
same,T/C,"dose: 12.8 mg/kg/injection, schedule: Q07DX002 (ip), vehicle: water",45 % of control
same,T/C,[6],32 % of control and 33 % of control
same,T/C,[7],29 % of control
COc1cccc(-c2cc(=O)c3cccc(CC(=O)O)c3o2)c1,T/C,"dose: 12.5 mg/kg/injection, schedule: Q07DX002 (ip), vehicle: saline",88 % of control
same,T/C,[6],97 % of control
same,T/C,[8],110 % of control
same,T/C,[7],33 % of control
COC(C(=O)C(O)C(C)O)C1Cc2cc3cc(OC4CC(OC(C)=O)C(OC5CC(O)C(OC)C(C)O5)C(C)O4)cc(O)c3c(O)c2C(=O)C1OC1CC(OC2CC(OC3CC(C)(O)C(OC(=O)C(C)C)C(C)O3)C(O)C(C)O2)C(O)C(C)O1 (stereo not given),T/C,"dose: 0.12 mg/kg/injection, schedule: Q07DX002 (ip), vehicle: saline with Tween-80",113 % of control
same,T/C,"dose: 0.25 mg/kg/injection, schedule: Q07DX002 (ip), vehicle: saline",81 % of control
same,T/C,"dose: 0.5 mg/kg/injection, schedule: Q07DX002 (ip), vehicle: saline with Tween-80",113 % of control
same,T/C,"dose: 0.5 mg/kg/injection, schedule: Q07DX002 (ip), vehicle: saline",78 % of control
same,T/C,"dose: 1.0 mg/kg/injection, schedule: Q07DX002 (ip), vehicle: saline with Tween-80",59 % of control
same,T/C,"dose: 1.0 mg/kg/injection, schedule: Q07DX002 (ip), vehicle: saline",89 % of control
same,T/C,"dose: 2.0 mg/kg/injection, schedule: Q07DX002 (ip), vehicle: saline with Tween-80",55 % of control
same,T/C,"dose: 2.0 mg/kg/injection, schedule: Q07DX002 (ip), vehicle: saline",124 % of control
same,T/C,"dose: 4.0 mg/kg/injection, schedule: Q07DX002 (ip), vehicle: saline with Tween-80",48 % of control
same,T/C,"dose: 4.0 mg/kg/injection, schedule: Q07DX002 (ip), vehicle: saline",92 % of control
COC1CC(C)C(OC)c2cc(O)cc(c2O)NC(=O)/C(C)=C/C=C\C(C)C(OC(N)=O)/C(C)=C\C(C)C1OC (stereo not given),T/C,"dose: 3.13 mg/kg/injection, schedule: Q07DX002 (ip), vehicle: saline + alcohol",114 % of control
same,T/C,"dose: 12.5 mg/kg/injection, schedule: Q07DX002 (ip), vehicle: saline + alcohol",69 % of control
same,T/C,"dose: 25.0 mg/kg/injection, schedule: Q07DX002 (ip), vehicle: saline + alcohol",94 % of control
NC(=O)NO,T/C,[6],99 % of control
same,T/C,[8],69 % of control
same,T/C,[7],99 % of control
same,T/C,"dose: 100.0 mg/kg/injection, schedule: Q07DX003 (ip), vehicle: saline",152 % of control
same,T/C,"dose: 200.0 mg/kg/injection, schedule: Q07DX002 (ip), vehicle: saline",78 % of control
same,T/C,"dose: 200.0 mg/kg/injection, schedule: Q07DX003 (ip), vehicle: saline",43 % of control and 60 % of control
same,T/C,"dose: 400.0 mg/kg/injection, schedule: Q07DX002 (ip), vehicle: saline",88 % of control
same,T/C,"dose: 800.0 mg/kg/injection, schedule: Q07DX003 (ip), vehicle: saline",39 % of control
OC1CCCC2CCC[N-]C12.OC1CCCC2CCC[N-]C12.[Mn+2] (stereo not given),T/C,[1],76 % of control
same,T/C,[3],91 % of control
same,T/C,[4],63 % of control and 84 % of control
same,T/C,[5],86 % of control and 98 % of control
same,T/C,"dose: 400.0 mg/kg/injection, schedule: Q07DX002 (ip), vehicle: Klucel (hydroxypropylcellulose) (HPC)",69 % of control
